Consider 13 compounds from patent publication US8501991B2, “P53 activating compounds” (University Court of the University of Dundee, priority 2006, dated 2013).

Where a name gives a salt, the structure may show the parent alone.

Data set [1] has as its system p53-dependent transcription. In words: p53-dependent transcription in T22 RGC-ΔFos-lacZ cells (primary screen, beta-galactosidase/CPRG). Type of data set: cell-based. The conditions noted are these: for Bioactivity (relative to JJ91): p53-dependent transcription in T22 RGC-ΔFos-lacZ cells, JJ91 activity taken as 100%.
Protocol: T22 RGC-ΔFos-lacZ cells expressing beta-galactosidase under the control of a p53-dependent promoter were used and are described by Lu X, Burbidge S A, Griffin S, and Smith H M in Oncogene. […] DMSO should not exceed 1:100 final concentration in medium. Use an untreated control and a positive control treated with 5 ng/ml actinomycin D. Total volume=100 μl • Remove medium from 96 well plate after 18 h and add 50 μl 1× lysis buffer (Promega) per well • Shake for 1 hour at room temperature (can freeze plate at −80° C. until ready to use) • Add 150 μl CPRG reaction mix per well, • Preparation of 15 ml CPRG reaction mix: • 15 ml 0.1M phosphate buffer, pH7.5 • 300 μl CPRG 4 mg/ml (Boehringer-Mannheim) 80 μl (0.1 M MgCl2/0.1 M β-mercaptoethanol) • Incubate 4 hours at 37° C. in a damp chamber. If colour changes from yellow to pink, this indicates p53 activity • Transfer 100 μl from each well to a new 96 well plate. This prevents cell debris from interfering with absorbance reading.
Fold induction of p53-dependent transcription was measured.
The target of the next data set is SirT1 (Homo sapiens (Human), UniProt Q96EB6). As to the kind of experiment: In vitro deacetylation assay (Fluor de Lys SirT1 Fluorescent Activity Assay). Type of data set: biochemical. To be noted: FdL substrate 7 μM, NAD+ 1 mM, 37° C., 1 hour; read-out: SIRT1 inhibition IC50.
Sequence of SirT1 (Q96EB6 whole entry): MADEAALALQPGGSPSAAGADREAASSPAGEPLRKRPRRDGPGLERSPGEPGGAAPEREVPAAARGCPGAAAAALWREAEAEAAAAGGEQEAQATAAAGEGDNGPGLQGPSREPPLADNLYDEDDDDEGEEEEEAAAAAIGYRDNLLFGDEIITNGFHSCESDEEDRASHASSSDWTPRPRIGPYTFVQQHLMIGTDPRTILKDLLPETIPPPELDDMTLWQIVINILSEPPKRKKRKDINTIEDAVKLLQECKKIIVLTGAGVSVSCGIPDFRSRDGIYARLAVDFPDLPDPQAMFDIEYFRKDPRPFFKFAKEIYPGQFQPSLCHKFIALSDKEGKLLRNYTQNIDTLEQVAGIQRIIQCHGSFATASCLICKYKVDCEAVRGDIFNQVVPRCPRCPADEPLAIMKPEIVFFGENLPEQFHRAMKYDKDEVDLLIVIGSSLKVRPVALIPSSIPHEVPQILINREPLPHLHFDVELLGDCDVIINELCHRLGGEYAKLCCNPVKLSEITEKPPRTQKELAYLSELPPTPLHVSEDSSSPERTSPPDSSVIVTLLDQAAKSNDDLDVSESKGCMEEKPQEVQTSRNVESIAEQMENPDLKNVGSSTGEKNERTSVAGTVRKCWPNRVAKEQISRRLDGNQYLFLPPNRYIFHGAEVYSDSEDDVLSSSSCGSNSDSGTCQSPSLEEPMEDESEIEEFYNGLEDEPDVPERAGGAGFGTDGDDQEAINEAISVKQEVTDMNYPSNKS
The test system of the next data set is SKNSH-DDp53 cells. As to the kind of experiment: FACS analysis of neuroblastoma cells with inactivated p53. To be noted: 10 μM, 48 hours, SKNSH cells with inactive p53. The class given is cell-based. On the procedure: Neuroblastoma cell lines SKNSH-CMVNeo (with functional p53) and SKNSH-DDp53 (inactivated p53) were used and are described by Smart P, Lane E B, Lane D P, Midgley C, Vojtesek B, Lain S. in Oncogene. 1999 Dec. 2; 18(51):7378-86.
• Seed 50,000 cells per well of a 6 well plate in DMEM-10% FCS Day 2 • Add drugs to cells Day 4 • Add bromodeoxyuridine (BrdU) to 30 μM and incubate cells for 20 minutes. • Remove media from cells and transfer to a 13 ml Falcon tube. Rinse cells with PBS and transfer this also. Trypsinise cells and transfer to tube then finally rinse with PBS again. Once all transferred to tube, pellet cells at 1500 rpm for 5 minutes. • Resuspend cells in 1 ml of PBS and add drop wise to 3 ml of ethanol while vortexing. Incubate for a minimum of 1-2 hours at 4° C. (no maximum). […] Keep on ice in the dark until analysed on the FACScan. • Measure DNA content (propidium iodide fluorescence) and DNA synthesis (BrdU incorporation) by FACScan. […]
Cells were analysed by FACS analysis.
(In general: In flow cytometry, cells or beads pass a laser one at a time.)

Another data set has as its system p53. In words: Western blotting of MCF-7 cell extracts. The conditions noted are these: MCF-7 cells, 10 μM. The class given is cell-based. On the procedure: • Seed 50,000 cells per well of a 6 well plate in DMEM-10% FCS Day 2 • Add drugs to cells Day 4 • Add bromodeoxyuridine (BrdU) to 30 μM and incubate cells for 20 minutes. • Remove media from cells and transfer to a 13 ml Falcon tube. Rinse cells with PBS and transfer this also. Trypsinise cells and transfer to tube then finally rinse with PBS again. Once all transferred to tube, pellet cells at 1500 rpm for 5 minutes. • Resuspend cells in 1 ml of PBS and add drop wise to 3 ml of ethanol while vortexing. Incubate for a minimum of 1-2 hours at 4° C. (no maximum). Day 5 • Pellet by centrifugation at 2,500 rpm for 5 minutes then pour off supernatant. • Prepare 2 ml fresh pepsin solution per tube at 1 mg/ml in 30 mM HCl (pH 1.5) and prewarm to 37° C. • Add 2 ml prewarmed pepsin solution to each tube and mix for 30 mins at 37° C. • Pellet by centrifugation at 2500 rpm for 5 minutes then pour off supernatant (pellets will be clear) • Add 1 ml 2M HCl for 15-20 mins at room temperature (stock bottle is 11.6 M). • Timing is critical—incubating for long periods results in broad DNA peaks. • Top up with PBS then pellet as before. • Wash again with PBS then once in antibody buffer, pelleting cells each time. • Antibody buffer: PBS, 0.5% BSA, 0.5% Tween-20 • Resuspend pellet into 200 μl of Becton Dickinson anti-BrdU antibody diluted 1:50 in antibody buffer. Incubate for 1 h at room temperature. • Wash in PBS and pellet cells. • Resuspend pellet in 200 μl Sigma FITC antibody (#3008) diluted 1:64 in antibody buffer. Incubate for 30 min at room temperature in the dark to prevent the antibody fading. • Wash in PBS and pellet cells. • Resuspend final pellet in 500 μl PBS containing 25 μg/ml propidium iodide counter stain. Keep on ice in the dark until analysed on the FACScan. • Measure DNA content (propidium iodide fluorescence) and DNA synthesis (BrdU incorporation) by FACScan. 3. […]
Levels of the p53 downstream target p21 are increased Actin was analysed as a loading control.
A general note: Immunoblotting shows a protein as a band on a membrane.

A short description of data set [2]: Blood levels after administration to mice (LC-MS/MS). The class given is in vivo. The conditions noted are these: 5 mg/kg, intraperitoneal injection. The protocol:
Blood levels were determined at the times shown by LC-MS/MS above and the values shown are the means±SD for three determinations.

Data set [3] concerns BL2 Burkitt lymphoma cells. As to the kind of experiment: Survival of BL2 Burkitt lymphoma cells. Type of data set: cell-based. To be noted: 1 μM to 10 μM in 70% cyclodextrin, 2 hours exposure daily for six days. On the procedure: At this time, the number of live cells were counted. After this short exposure, cells were washed to remove the compound. This treatment was repeated daily for six days. Experiments were performed in triplicate and standard deviations indicated.

The subject of data set [4] is BL2 Burkitt lymphoma xenograft tumours. As to the kind of experiment: BL2 Burkitt lymphoma xenograft tumours in SCID mice. The class given is in vivo. The conditions noted are these: 92 mg/kg daily by intraperitoneal injection, measured to day 11. The protocol: Referring to FIG. 7, BL2 Burkitt lymphoma xenograft tumours in SCID mice were established for 7 days until tumours were palpable. […] Tumour sizes were measured on the day of injection (day 1) and on days 4, 8 and 11 post-injection.

A word on the IC50: it is the concentration needed to halve the response being measured. One may read the half-life as the time in which the quantity being followed falls by half.

Protocol for SirT1: Enzymatic SirT1 assays were carried out using purified components in the Fluor de Lys Fluorescent Assay Systems (Biomol kit AK555) and following the manufacturers instructions. […] Reactions were carried out at 37° C. for 1 hour.
Deacetylation and developer reactions were carried out for 1 hour at 37° C.

Consider `CC(C)(C)c1ccc(C(=O)NC(=S)Nc2ccc(N)cc2)cc1` [JH129, 1-(4-Amino-phenyl)-3-(4-tert-butyl-benzoyl)-thiourea], for which the “Bioactivity (relative to JJ91)” value in data set [1] is “Active (<)”. Take `CN(C)CCCCCC(=O)Nc1ccc(NC(=S)NC(=O)c2ccc(C(C)(C)C)cc2)cc1` [Compound 6, 6-Dimethylamino-hexanoic acid {4-[3-(4-tert-butyl-benzoyl)-thioureido]-phenyl}-amide hydrochloride]: the 50% inhibitory concentration (IC50) on SirT1 amounted to 16 ± 3 µM. For `CN(C)CCCC(=O)Nc1ccc(NC(=S)NC(=O)c2ccc(C(C)(C)C)cc2)cc1` [Compound 5, N-{4-[3-(4-tert-Butyl-benzoyl)-thioureido]-phenyl}-4-dimethylamino-butyramide hydrochloride], the IC50 on SirT1 came to 32 ± 9 µM.

In the case of `CC(C)(C)c1ccc(C(=O)NC(=S)Nc2ccc(NC(=O)CCCCBr)cc2)cc1` [JH140, 5-bromo-pentanoic acid {4-[3-(4-tert-butyl-benzoyl)-thioureido]-phenyl}-amide], the “Bioactivity (relative to JJ91)” value in data set [1] is on record as “Active (87.5%)”. Take `CN(C)CCCCCCCC(=O)Nc1ccc(NC(=S)NC(=O)c2ccc(C(C)(C)C)cc2)cc1` [Compound 7, 8-Dimethylamino-octanoic acid {4-[3-(4-tert-butyl-benzoyl)-thioureido]-phenyl}-amide hydrochloride]: the IC50 on SirT1 turned out to be 25 ± 10 µM. In the case of `CC(C)(C)c1ccc(C(=O)NC(=S)Nc2ccc(NC(=O)CCCCN3CCOCC3)cc2)cc1.Cl` [JH156HCl], the “Bioactivity (relative to JJ91)” value in data set [1] is “Active (59.6%)”. Take `CC(C)(C)c1ccc(C(=O)NC(=S)Nc2ccc(NC(=O)CCCCN3CCOCC3)cc2)cc1` [JH156]: the “Bioactivity (relative to JJ91)” value in data set [1] is listed as “Active (75.4%)”.

Regarding `CC(=O)Nc1ccc(NC(=S)NC(=O)c2ccc(C(C)(C)C)cc2)cc1` [JJ91, N-{4-[3-(4-tert-Butyl-benzoyl)-thioureido]-phenyl}-acetamide], the “p53 transcription factor function” value in data set [1] (T22 RGC-ΔFos-lacZ cells treated 16 hours) was “activates p53's transcription factor function”. In addition, the “effects on DNA synthesis and cell death” value in the data set with SKNSH-DDp53 cells was “not observed”. In addition, in the data set with p53, the “levels of the p53 downstream target p21” value is “increased” and the p53 levels entry is reported as “rapidly increased”. The “levels of p53 phosphoserine-15” value in the data set with p53 (compared with mitomycin C 10 μM) is on record as “not as high as those observed with the genotoxic gent mitomycin C”. For the same compound, in data set [2], the concentrations in blood result is reported as “reach micromolar concentrations in blood” and the “weight or behavioural changes” value is “do not cause significant weight or behavioural changes”. The half-life in data set [2] (mouse, ip, blood) is approximately 1.3 h. Further, the BL2 cell survival result in data set [3] was “largely reduced”. The “growth of BL2 xenograft tumours” value in data set [4] is given as “reduces growth of BL2 xenograft tumours”. In the case of `CC(C)(C)c1ccc(C(=O)NC(=S)Nc2ccc(NC(=O)c3ccccc3)cc2)cc1` [JH151], the “Bioactivity (relative to JJ91)” value in data set [1] is reported as “Active (106.1%)”.

Turning to `CC(C)(C)OC(=O)Nc1ccc(NC(=S)NC(=O)c2ccc(C(C)(C)C)cc2)cc1` [Compound 21, {4-[3-(4-tert-Butyl-benzoyl)-thioureido]-phenyl}-carbamic acid tert-butyl ester], the “activity in the p53 activation assay (in words)” value in data set [1] is listed as “very good activity”. `CC(C)C(=O)Nc1ccc(NC(=S)NC(=O)c2ccc(C(C)(C)C)cc2)cc1` [Compound 7322366]: in data set [1], the “Bioactivity (relative to JJ91)” value is “Active (81.2%)”. As for `CN(C)CCCCC(=O)Nc1ccc(NC(=O)NC(=O)c2ccc(C(C)(C)C)cc2)cc1` [Compound 24, 5-Dimethylamino-pentanoic acid {4-[3-(4-tert-butyl-benzoyl)-ureido]-phenyl}-amide hydrochloride], the half-maximal inhibitory concentration (IC50) at SirT1 turned out to be 29 µM. On to `CN(C)CCOCCOCCOCCOCCOCC(=O)Nc1ccc(NC(=S)NC(=O)c2ccc(C(C)(C)C)cc2)cc1` [Compound 8, N-{4-[3-(4-tert-Butyl-benzoyl)-thioureido]-phenyl}-2-[2-(2-{2-[2-(2-dimethylamino-ethoxy)-ethoxy]-ethoxy}-ethoxy)-ethoxy]-acetamide hydrochloride], for which, on SirT1, the concentration for half-maximal inhibition (IC50) is more than 60 µM.
